Experimental data taken from patent publication US20260256751A1, “COMBINATION OF BETA-2-ADRENERGIC RECEPTOR AGONISTS AND GLP-1 RECEPTOR AGONISTS FOR USE IN TREATING HYPERGLYCAEMIA” (ATROGI AB, priority 2023, published 2026).

Experiments:
[1] = system: differentiated L6-myotubes; experiment: Glucose uptake screen (Biological example 1 of WO 2019/053427); assay type: cell-based; conditions: compound at 10 μM, activity relative to isoproterenol at 10 μM, read-out: Biological example 1 of WO 2019/053427 (GU)
Procedure, shortened: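 Uptake was read out as ^3H-2-deoxyglucose (50 nM, 10 min) radioactivity in NaOH lysates. Beforehand, overnight-starved, differentiated L6 myotubes received compound at 1×10^−5 M with ICI-118551 present for 1 h 40 min, followed by fresh agonist for a further 20 min in glucose-free medium.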

[2] = system: differentiated L6-myotubes; experiment: cAMP production relative to isoprenaline (Biological example 2 of WO 2019/053427); assay type: cell-based; conditions: 0.25 h, compound at 10 μM, activity relative to isoproterenol at 10 μM
Procedure, shortened: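 Values are cAMP levels relative to isoprenaline at equal concentration (final 1×10^−5 M for both). Stimulation lasted 15 min in differentiated L6 myotubes, using HBSS buffer (pH 7.4) containing 1 mM IBMX, 5 mM HEPES and 1% BSA.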

SMILES	Emax at 10 µM [1] [%]	Emax at 10 µM [2] [%]
CC(C)(C)NC[C@H](O)c1ncccc1Cl [Compound 146, (S)-2-(tert-butylamino)-1-(3-chloro-2-pyridyl)-1-ethanol]	25 to 50	< 25
COC(=O)[C@H]1CC[C@@H](CC(C)(C)NC[C@H](O)c2cncc(F)c2)CC1 [Compound 322, methyl (1S,4s)-4-{2-[(R)-2-(5-fluoro-3-pyridyl)-2-hydroxyethylamino]-2-methylpropyl}cyclohexanecarboxylate]	> 75	< 25
CC(C)(CC[C@H]1CC[C@@H](O)CC1)NC[C@H](O)c1ccccc1F [Compound 320, (R)-2-{1,1-dimethyl-3-[(1s,4R)-4-hydroxycyclohexyl]propylamino}-1-(o-fluorophenyl)-1-ethanol]	> 75	25 to 50
CC1(C)CC[C@H]([C@@H](O)c2ccc(F)cc2)N1 [Compound 172, (S)-[(R)-5,5-dimethyl-2-pyrrolidinyl](p-fluorophenyl)methanol]	< 25	< 25
CC1(C)CC[C@H]([C@H](O)c2cccc(F)c2)N1 [Compound 110, (R)-[(R)-5,5-dimethyl-2-pyrrolidinyl](m-fluorophenyl)methanol]	> 75	< 25
CCC[C@H]1CCCC[C@@H]([C@H](O)c2cncc(F)c2)N1 [Compound 234, (R)-[(2S,7S)-7-propyl-2-azepanyl](5-fluoro-3-pyridyl)methanol]	> 75	< 25
CCC[C@@H]1CC[C@@H]([C@H](O)c2cccc(F)c2)N1 [Compound 132, (R)-[(2S,5R)-5-propyl-2-pyrrolidinyl](m-fluorophenyl)methanol]	25 to 50	< 25
O=C(N[C@H]1CC[C@H](CNC[C@H](O)c2cncc(F)c2)CC1)c1ccccc1 [Compound 317, N-[(1R,4r)-4-{[(R)-2-(5-fluoro-3-pyridyl)-2-hydroxyethylamino]methyl}cyclohexyl]benzamide]	50 to 75	< 25
CN(C)S(=O)(=O)[C@H]1CC[C@@H](CC(C)(C)NC[C@H](O)c2cncc(F)c2)CC1 [Compound 471, (R)-2-{1,1-dimethyl-2-[(1s,4S)-4-(dimethylaminosulfonyl)cyclohexyl]ethylamino}-1-(5-fluoro-3-pyridyl)-1-ethanol]	> 75	50 to 75
Cc1ncccc1[C@@H](O)CNC(C)(C)C [Compound 376, (R)-2-(tert-butylamino)-1-(2-methyl-3-pyridyl)-1-ethanol]	> 75	25 to 50
CC(C)(C)NC[C@H](O)c1ccc(F)cc1O [Compound 80, (R)-2-(tert-butylamino)-1-(4-fluoro-2-hydroxyphenyl)-1-ethanol]	50 to 75	< 25
CCCC(C)NC(C)C(O)c1ccc(O)cc1 (centres unmarked) [Compound 13, 1-(p-hydroxyphenyl)-2-(1-methylbutylamino)-1-propanol]	50 to 75	< 25
CCCCNC[C@H](O)c1cnc(N)s1 [Compound 75, (S)-1-(2-amino-1,3-thiazol-5-yl)-2-(butylamino)-1-ethanol]	25 to 50	< 25
CCC[C@@H]1CCC[C@@H]([C@@H](O)c2cccc(O)c2)N1 [Compound 113, (S)-[(2S,6R)-6-propyl-2-piperidyl](m-hydroxyphenyl)methanol]	50 to 75	< 25
CCCCNC[C@H](O)c1ccc(O)cc1 [Compound 9, (R)-2-(butylamino)-1-(p-hydroxyphenyl)-1-ethanol]	> 75	< 25
CC1(C)CCC[C@H]([C@@H](O)c2ccccc2F)N1 [Compound 176, (S)-[(R)-6,6-dimethyl-2-piperidyl](o-fluorophenyl)methanol]	> 75	25 to 50
OC(CNCC1CCCCC1)c1ccccc1 (centres unmarked) [Compound 7, 2-[(cyclohexylmethyl)ami-no]-1-phenyl-1-ethanol]	25 to 50	< 25
CN([C@H]1CC[C@H](CC(C)(C)NC[C@H](O)c2cncc(F)c2)CC1)S(C)(=O)=O [Compound 521, (R)-2-{1,1-dimethyl-2-[(1r,4R)-4-(N-mesyl-N-methylamino)cyclohexyl]ethylamino}-1-(5-fluoro-3-pyridyl)-1-ethanol]	50 to 75	< 25
CC1(C)CCC[C@H]([C@@H](O)c2cccc(O)c2)N1 [Compound 103, (S)-[(R)-6,6-dimethyl-2-piperidyl](m-hydroxyphenyl)methanol]	25 to 50	< 25
CC12CC(C1)[C@H]([C@@H](O)c1ccccc1F)N2 [Compound 212, (S)-{(R)-1-methyl-2-azabicyclo[2.1.1]hex-3-yl}(o-fluorophenyl)methanol]	> 75	< 25
CC(=O)N(C)[C@H]1CC[C@@H](CC(C)(C)NC[C@H](O)c2cccc(F)c2)CC1 [Compound 492, N-[(1S,4s)-4-{2-[(R)-2-(m-fluorophenyl)-2-hydroxyethylamino]-2-methylpropyl}cyclohexyl]-N-methylacetamide]	25 to 50	< 25
O[C@@H](CNC[C@H]1CC[C@@H](O)CC1)c1cncc(F)c1 [Compound 269, (R)-1-(5-fluoro-3-pyridyl)-2-({[(1s,4S)-4-hydroxycyclohexyl]meth-yl}amno)-1-ethanol]	25 to 50	< 25
O[C@H](c1cccc(F)c1)C12CCC(COCc3ccc(Cl)cc3)(CC1)N2 [Compound 396, (R)-(4-{[(p-chlorophenyl)methoxy]methyl}-7-azabicyclo[2.2.1]hept-1-yl)(m-fluorophenyl)methanol]	> 75	< 25
COc1ccc(C[C@@]2(C)CC[C@H]([C@@H](O)c3cccc(F)c3)N2)cc1 [Compound 365, (S)-{(2R,5R)-5-[(p-methoxyphenyl)methyl]-5-methyl-2-pyrrolidinyl}(m-fluorophenyl)methanol]	> 75	< 25
CC1(C)CC[C@@H]([C@@H](O)c2cccc(F)c2)N1 [Compound 145, (S)-[(S)-5,5-dimethyl-2-pyrrolidinyl](m-fluorophenyl)methanol]	25 to 50	< 25
COc1ccc(CC23CCC([C@H](O)c4cccc(F)c4)(CC2)N3)cc1 [Compound 401, (R)-(m-fluorophenyl){4-[(p-methoxyphenyl)methyl]-7-azabicyclo[2.2.1]hept-1-yl}methanol]	> 75	< 25
O[C@H](c1cccc(F)c1)C12CCC(COCc3ccc(F)cc3)(CC1)N2 [Compound 439, (R)-(m-fluorophenyl)(4-{[(p-fluorophenyl)methoxy]methyl}-7-azabicyclo[2.2.1]hept-1-yl)methanol]	> 75	25 to 50
O[C@@H](c1cncc(F)c1)C12CCC(CCc3ccc(OC(F)(F)F)cc3)(CC1)N2 [Compound 543, (S)-(5-fluoro-3-pyridyl){4-[2-(p-trifluoromethoxyphenyl)ethyl]-7-azabicyclo[2.2.1]hept-1-yl}methanol]	< 25	< 25
